Data published in PubChem BioAssay (NCI).
“And” between values parts separate entries of the source, which are not always exact repeats. Identical values can stand only once.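 Five compound concentrations were applied to cells in 96-well plates for 48 hours; endpoints were derived by simple linear interpolation of the resulting dose-response curve. GI50 = concentration required for 50% inhibition of growth. TGI is the concentration that stops growth completely.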

Experiments:
Experiment in all cases: NCI-60 cell line screen, 48 h
HOP-62 NSCLC = test system: HOP-62 NSCLC
EKVX NSCLC = test system: EKVX NSCLC
LOX IMVI melanoma = test system: LOX IMVI melanoma
HCC-2998 colon = test system: HCC-2998 colon
COLO 205 colon = test system: COLO 205 colon
KM12 colon = test system: KM12 colon
HOP-92 NSCLC = test system: HOP-92 NSCLC

Row | SMILES | TGI (HOP-62 NSCLC) | TGI (EKVX NSCLC) | TGI (LOX IMVI melanoma) | TGI (HCC-2998 colon) | TGI (COLO 205 colon) [µM] | TGI (KM12 colon) | GI50 (HOP-62 NSCLC) | GI50 (EKVX NSCLC) | GI50 (HOP-92 NSCLC) | TGI (HOP-92 NSCLC) | GI50 (LOX IMVI melanoma) | GI50 (HCC-2998 colon) | GI50 (COLO 205 colon) | GI50 (KM12 colon)
1 | Nc1ncnc2c1ncn2C1OC(COP(=O)(O)CP(=O)(O)O)C(O)C1O (stereo not given) | > 100 µM | > 100 µM | > 100 µM | > 100 µM | > 100 | > 100 µM |  |  |  |  |  |  |  | 
2 | CNC(=O)c1cc(COc2nnc(Nc3ccc(Cl)cc3)c3ccoc23)ccn1 | 16 µM and > 10 µM | 28.3 µM and > 10 µM | 25.1 µM and > 10 µM | 52.7 µM and > 10 µM | > 79 | 80.9 µM and > 10 µM | 3.31 µM and 9.48 µM | 10.6 µM and > 10 µM | 2.9 µM and 3.78 µM | 14.4 µM and > 10 µM | 6.41 µM and > 10 µM | 17 µM and > 10 µM | 20.6 µM and > 10 µM | 21.5 µM and > 10 µM
3 | Cc1c2cnccc2c(C)c2c1c1cc(C3OCCCO3)ccc1n2C | 1.82 µM | 2.56 µM | 0.659 µM | 2.94 µM | 1.75 | 3.77 µM | 0.286 µM | 0.451 µM | 0.281 µM | 1.66 µM | 0.146 µM | 0.659 µM | 0.357 µM | 0.5 µM
4 | CCSc1nnc2c(-c3ccccc3)n[nH]c2n1 | > 100 µM | > 100 µM | > 100 µM |  | > 100 | > 100 µM |  |  |  | > 100 µM |  |  |  | 
5 | CN1C(=O)c2c(ccc3c2OCO3)C2C(O)Cc3cc4c(cc3C21)OCO4 (stereo not given) |  | 60.9 µM | > 100 µM | 64.4 µM | 14.4 | 21.6 µM |  |  |  | > 100 µM |  |  |  | 
6 | CC1=C([Se]CC(OC(=O)[C@@H](CSSC(C)(C)C)NC(=O)OC(C)(C)C)C(=O)NC(C)(C)C)C(=O)c2ccccc2C1=O (stereo not given in full) | 2.81 µM | 3.11 µM | 2.79 µM | 3.1 µM | 3.15 | 2.51 µM | 0.762 µM | 1.51 µM |  |  | 1.47 µM | 1.54 µM | 1.67 µM | 1.26 µM
7 | O=C(c1ccccc1)c1c(NCC(O)CN2CCCC2)n(Cc2ccccc2)c(=O)n(Cc2ccccc2)c1=O (stereo not given) | 49.5 µM | 49.1 µM | 29.4 µM | 36.5 µM | 31.2 | 31.7 µM | 21.7 µM | 19.6 µM |  |  | 15.7 µM | 20.5 µM | 16.2 µM | 15.8 µM
8 | Cc1[nH]ncc1-c1cc2nc(C3CC4CCN3CC4)[nH]c(=O)c2s1 (stereo not given) | > 100 µM | 90.2 µM | 21.1 µM | > 100 µM |  | > 100 µM | 2.83 µM | 4.3 µM | 5.5 µM | > 100 µM | 1.46 µM | 7.09 µM |  | 4.07 µM
9 | NS(=O)(=O)c1ccc(NC(=O)c2ccc(NC3=C(Cl)C(=O)N(Cc4ccccc4)C3=O)cc2)cc1 | 22.1 µM | > 100 µM | 39 µM |  | > 100 | > 100 µM | 10.4 µM | 61.9 µM | 10.9 µM | 31.3 µM | 3.35 µM |  | 15.1 µM | 48.7 µM
10 | Cc1ccc(NCCCN2CCN(CCCNc3ccc(C)c4sc5ccccc5c(=O)c34)CC2)c2c(=O)c3ccccc3sc12 | > 100 µM | > 100 µM | > 100 µM | > 100 µM | > 100 | > 100 µM |  |  |  |  |  |  |  | 
